Laboratory results as given in the NIST ThermoML archive (doi:10.1016/j.jct.2010.06.003).
± gives the expanded uncertainty stated by the source.

Legend:
[1] = Molar enthalpy of transition or fusion; settings: Crystal; DSC
[2] = Crystal; DTA

Compound	Molar enthalpy of transition or fusion [1] [kcal/mol]	Triple point temperature [2] [K]
O=c1oc2ccccc2cc1O [3-hydroxycoumarin]	6.48 ± 0.146	425.62 ± 0.39
O=c1cc(O)c2ccccc2o1 [4-hydroxycoumarin]	5.54 ± 0.141	483.62 ± 0.91
